Patent US12291504B2 (University of Pittsburgh—Of the Commonwealth System of …, priority 2018, dated 2025)
pKi: −log10 of the molar value.

Experiments:
[1] = system: other major SULT isoforms found in liver and brain; experiment: Inhibition of SULT isoforms by CMP8 (FIG. 1); assay type: biochemical; conditions: at concentrations as high as 2 mM
Experimental: The initial rates of SULT catalyzed 1-HP sulfonation are plotted as a function of inhibitor concentration, and are normalized relative to [inhibitor]=0. Enzyme activity was monitored by the sulfonation dependent change in 1-HP fluorescence (λex=325 nm, λem=370 nm). Less than 5% of the concentration-limiting substrate converted at the reaction endpoint was consumed during initial-rate measurements. Each point is the average of three independent determinations. Conditions: SULT (20 nM, active sites), PAPS (0.50 mM, 17×Km), 1-HP (5.0 μM, 61×Km), KPO4 (50 mM), pH 7.5, 25±2° C.
Such inhibitors alleviate inhibition when used competitively against total inhibitors that bind at the same site. […] Given these favorable characteristics, it was reasoned that the CMP8-binding site offered a new target that could be used to control 1A3 activity. Consequently, the solution structure of the CMP8-binding site was determined using spin-label-triangulation NMR. As used herein, the “CMP8-binding site” refers to the SULT1A3 allosteric site defined herein, which is different from the catechin- and NSAID-binding sites.

[2] = target: T1, SULT1A3 F222A, H226A (Homo sapiens, UniProt P0DMM9, F222A/H226A); experiment: Binding-site mutation effect on Ki CMP8, F222A, H226A; assay type: biochemical; conditions: H226A versus wild type
T1 construct: N-His/GST/MBP triple-tag (N, cleaved yes); made in house; host or cells: E. coli BL21(DE3)
Experimental: Initial-Rate Studies. Initial-rate parameters for the labeled or mutant SULT1A3 constructs were determined using a previously described 1-HP assay (25). Briefly, reactions were initiated by addition of PAPS (0.50 mM, 17×Km) to a solution containing enzyme (20 nM, active sites), 1-HP (2.0 μM, ˜24×Km), and KPO4 (50 mM), pH 7.5, 25±2° C. Reactions were monitored via fluorescence change associated with the conversion of 1-HP to 1-HP-S (λex=325 nm, λem=370 nm). Keq for the 1-HP sulfonation reaction is […]. Given the reaction conditions outlined above, ≥99% of 1-HP is converted to 1-HP-S, and ˜0.4% of PAPS is converted to PAP at equilibrium. […] Reaction progress curves were analyzed to obtain initial-rate parameters as described previously (26,27).
Inhibition studies. Inhibition parameters were determined under conditions identical to those described above (see, Initial-Rate Studies) except that [1-HP] was increased to 5.0 μM (˜61×Km) and inhibitor concentration was varied between 0.20-20×Ki. Ki was obtained using a least-squares fit to the following partial inhibition equation (25,28): v=kcat·(Ki+(1/kcat inh)·[I])/(Ki+[I]), where kcat inh is enzyme turnover at saturating substrates and allosteric inhibitor.
Confirming the Structure. The structure was validated by testing its ability to predict the consequences of mutations on the initial-rate parameters of the enzyme. […]

[3] = target: SULT1A3 spin-labeled at Cys 198 (Homo sapiens, UniProt P0DMM9, E198C); experiment: Initial-rate parameters, spin-labeled SULT1A3 mutant 198
Experimental: (§3) Covalent Tagging of SULT1A3 Cys Constructs. Labeling of the SULT1A3 Cys constructs was performed as described previously (17,18,21). Briefly, 3-maleimido-PROXYL (spin label) or N-cyclohexylmaleimide (diamagnetic control) was added to an enzyme containing solution at 20-fold excess over reactive Cys. Unreacted Cys was monitored using DNTB (17,18,21); reactions were considered complete when >98% of the Cys was labeled. Reaction conditions: SULT1A3 (50 μM, monomer), 3-maleimido-PROXYL or N-cyclohexylmaleimide (1.0 mM), PAP (0.50 mM), KPO4 (50 mM), pH 7.5, 4±2° C. To prepare samples for NMR, reaction mixtures were dialyzed three times against 40 volumes of PAP (0.50 mM), KPO4 (50 mM), pD 7.4, D2O (>95%), 4±2° C.
(§4) Initial-Rate Studies. Initial-rate parameters for the labeled or mutant SULT1A3 constructs were determined using a previously described 1-HP assay (25). […] Reactions were monitored via fluorescence change associated with the conversion of 1-HP to 1-HP-S (λex=325 nm, λem=370 nm). Keq for the 1-HP sulfonation reaction is −250. Given the reaction conditions outlined above, ≥99% of 1-HP is converted to 1-HP-S, and ˜0.4% of PAPS is converted to PAP at equilibrium. […] Reaction progress curves were analyzed to obtain initial-rate parameters as described previously (26,27).

[4] = target: SULT1A3 spin-labeled at Cys 234 (Homo sapiens, UniProt P0DMM9, K234C); experiment: Initial-rate parameters, spin-labeled SULT1A3 mutant 234
Experimental: as §3, §4

[5] = target: T2, SULT2A1 (Homo sapiens, UniProt Q06520); experiment: SULT2A1 inhibition test; assay type: biochemical; conditions: at 50 uM
T2 sequence (Q06520 1-285): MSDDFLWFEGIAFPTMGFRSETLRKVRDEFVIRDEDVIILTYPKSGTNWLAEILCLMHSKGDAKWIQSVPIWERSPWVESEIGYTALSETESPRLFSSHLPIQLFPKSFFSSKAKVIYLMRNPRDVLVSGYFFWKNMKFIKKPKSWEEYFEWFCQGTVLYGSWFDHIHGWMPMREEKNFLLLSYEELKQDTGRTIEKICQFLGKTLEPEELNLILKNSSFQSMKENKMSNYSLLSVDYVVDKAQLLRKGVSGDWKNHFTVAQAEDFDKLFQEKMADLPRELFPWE

[6] = target: Dog (1D1) (Canis lupus familiaris, UniProt A0A8I3RXJ1); experiment: Inhibition of SULT1A3 homologues in different species: Dog; assay type: biochemical
Experimental: (§1) Compounds 12, 23 and 25 were also tested for Inhibition of SULT1A3 in different species. Inhibition of SULT1A3 Homologues in Different Species. SULT1A3 is only expressed in humans and higher primates. SULT1D1 is the isoform expressed in dogs and rodents that sulfonates neurotransmitters and is most similar to SULT1A3. Three synthesized allosteres (12, 23, and 25) were tested against both 1A3 and 1D1 from different species in order to explore testing in animal models. […] Mice have been engineered such that their SULT1A1/2 enzymes have been knocked out and replaced with the human versions of those isoforms.

[7] = target: Mouse (1D1) (Mus musculus, UniProt Q3UZZ6); experiment: Inhibition of SULT1A3 homologues in different species: Mouse; assay type: biochemical
Experimental: (§2) Compounds 12, 23 and 25 were also tested for Inhibition of SULT1A3 in different species.
as §1, with “Inhibition” for “Compounds 12, 23 and 25 were also tested for Inhibition of SULT1A3 in different species. Inhibition”

[8] = target: T3, Rat (1D1) (Rattus norvegicus, UniProt G3V9R3); experiment: Inhibition of SULT1A3 homologues in different species: Rat; assay type: biochemical
T3 sequence (G3V9R3 1-295): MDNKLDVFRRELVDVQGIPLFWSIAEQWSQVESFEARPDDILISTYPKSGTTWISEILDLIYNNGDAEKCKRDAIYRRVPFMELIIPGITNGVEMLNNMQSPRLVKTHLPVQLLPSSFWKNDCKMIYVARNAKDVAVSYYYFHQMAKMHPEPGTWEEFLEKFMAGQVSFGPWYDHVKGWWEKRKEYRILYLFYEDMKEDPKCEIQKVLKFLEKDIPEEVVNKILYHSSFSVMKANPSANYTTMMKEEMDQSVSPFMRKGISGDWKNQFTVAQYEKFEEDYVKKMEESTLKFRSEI
Experimental: as §2
as §1, with “Inhibition” for “Compounds 12, 23 and 25 were also tested for Inhibition of SULT1A3 in different species. Inhibition”

Chain of Mouse (1D1) (Q3UZZ6 whole entry): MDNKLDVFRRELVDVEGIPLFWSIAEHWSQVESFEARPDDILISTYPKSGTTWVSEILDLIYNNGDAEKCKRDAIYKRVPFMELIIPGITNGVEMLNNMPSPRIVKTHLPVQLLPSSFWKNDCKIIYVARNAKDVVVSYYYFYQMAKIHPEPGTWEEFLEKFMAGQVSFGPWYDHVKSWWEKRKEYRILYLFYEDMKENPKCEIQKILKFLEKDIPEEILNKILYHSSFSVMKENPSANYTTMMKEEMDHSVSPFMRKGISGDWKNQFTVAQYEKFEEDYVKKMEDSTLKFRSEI
Chain of Dog (1D1) (A0A8I3RXJ1 entry or part of it): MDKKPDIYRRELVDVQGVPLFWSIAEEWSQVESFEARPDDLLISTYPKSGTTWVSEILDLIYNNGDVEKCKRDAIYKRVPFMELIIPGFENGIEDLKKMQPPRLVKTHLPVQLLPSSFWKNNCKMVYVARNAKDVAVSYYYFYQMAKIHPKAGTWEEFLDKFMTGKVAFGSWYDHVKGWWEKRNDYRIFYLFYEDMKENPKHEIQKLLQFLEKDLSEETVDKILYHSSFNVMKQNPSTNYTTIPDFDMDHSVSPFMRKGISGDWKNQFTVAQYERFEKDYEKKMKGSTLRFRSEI
T1 sequence (P0DMM9 whole entry F222A/H226A): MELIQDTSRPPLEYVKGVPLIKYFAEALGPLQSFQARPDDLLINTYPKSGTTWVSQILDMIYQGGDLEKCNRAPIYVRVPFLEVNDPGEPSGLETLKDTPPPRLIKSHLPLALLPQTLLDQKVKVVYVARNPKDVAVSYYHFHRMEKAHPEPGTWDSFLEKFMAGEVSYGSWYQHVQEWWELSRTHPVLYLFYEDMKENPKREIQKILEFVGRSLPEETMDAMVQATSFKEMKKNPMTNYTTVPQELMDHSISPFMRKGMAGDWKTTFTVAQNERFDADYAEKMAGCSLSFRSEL
Chain of SULT1A3 spin-labeled at Cys 234 (P0DMM9 whole entry K234C): as the sequence (P0DMM9 whole entry F222A/H226A) above, with A222F, A226H, K234C counted along it
Chain of SULT1A3 spin-labeled at Cys 198 (P0DMM9 whole entry E198C): as the sequence (P0DMM9 whole entry F222A/H226A) above, with E198C, A222F, A226H counted along it

| increase in Ki CMP8 [2] | pKi [3] | pKi [4] | inhibition of SULT2A1 [5] | Dog (1D1) % inh [6] | pKi ([6]; standard error in neighbouring cell) | Mouse (1D1) % inh [7] | pKi ([7]; parentheses one standard error) | Rat (1D1) % inh [8] | pKi ([8]; parentheses one standard error) | SMILES | inhibition of other major SULT isoforms [1] |
| --- | --- | --- | --- | --- | --- | --- | --- | --- | --- | --- | --- |
| 60 fold | 7.34 | 7.51 | – | – | – | – | – | – | – | CC(C)Cc1ccc2cc(CO)ccc2n1 [Compound 8, (2-Isobutylquinolin-6-yl)methanol] | does not detectably inhibit |
| – | – | – | no inhibition was detected | 83 (6) % | 7.11 | 82 (2) % | 7.10 | 33 (4) % | 5.60 | CC(C)Cc1ccc2cc(CCC(N)=O)ccc2n1 [Compound 12] | – |
